According to US10174067B2, “Type of cytidine derivative and application thereof” (priority 2014, dated 2019):
Marks after values point to notes of the source that are not given here.

Experiments:
ICR mice = experiment: in vivo; details: female ICR mice; single-dose ip
In short: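 MTD, the dose without mortality, body-weight loss over 10% from Day 0 or marked adverse signs, was found by stepwise up/down single intraperitoneal dosing of female SPF ICR mice. Vehicle: ethanol:Cremophor EL:saline 5:5:90. Animals weighed daily and clinically checked twice daily for up to 14 days.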

[1] = test system: HCT-116 colon cancer xenografts; experiment: Tumor growth inhibition of HCT-116 colon cancer xenografts in tumor-bearing nude mice (tumor volume, TGI %, RTV, T/C %); format: in vivo, Balb/c Nude mice; details: G10-G16 groups, single IP 400 mg/kg
In short: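 Tumors in HCT-116-inoculated nude mice were sized three times weekly by diameter, with volume V=3/4π(D/2)^3. Significance set at P<0.05.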

[2] = In short: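 Test compounds formulated in ethanol:Cremophor EL:saline (5:5:90), vehicle alone as control, in HCT-116 subcutaneous xenografts in female Balb/c nudes (6/group, start 60–150 mm^3). Weight measured three times weekly, tumour weight at end; unpaired t-test on Mean±SEM data.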
[3] = Day 1, G10-G16 groups, single IP 400 mg/kg, Mean±SEM
[4] = Day 2, G10-G16 groups, single IP 400 mg/kg, Mean±SEM
[5] = Day 4, G10-G16 groups, single IP 400 mg/kg, Mean±SEM
[6] = Day 7, G10-G16 groups, single IP 400 mg/kg, Mean±SEM
[7] = Day 9, G10-G16 groups, single IP 400 mg/kg, Mean±SEM
[8] = Day 11, G10-G16 groups, single IP 400 mg/kg, Mean±SEM
[9] = Day 14, G10-G16 groups, single IP 400 mg/kg, Mean±SEM
[10] = Day 16, G10-G16 groups, single IP 400 mg/kg, Mean±SEM
[11] = Day 18, G10-G16 groups, single IP 400 mg/kg, Mean±SEM
[12] = Day 21, G10-G16 groups, single IP 400 mg/kg, Mean±SEM
[13] = Day 23, G10-G16 groups, single IP 400 mg/kg, Mean±SEM
[14] = Day 25, G10-G16 groups, single IP 400 mg/kg, Mean±SEM
[15] = Day 28, G10-G16 groups, single IP 400 mg/kg, Mean±SEM
[16] = Day 30, G10-G16 groups, single IP 400 mg/kg, Mean±SEM

In the case of `CCCCOC(=O)Nc1nc(=O)n(C2OC(COC(=O)COc3nc(Cl)c(Cl)cc3Cl)C(O)C2(F)F)cc1-c1cn(Cc2ccccc2)nn1` (centres unmarked) [Compound G15], the “dose that could be tolerated (maximum tolerated dose, MTD)” value (ICR mice) is reported as 400 mg/kg, the “Day 0 (RTV)” value ([1]; Day 0) is reported as 1.00 and the “Tumor volume, Day 0” value ([1]; Day 0, Mean±SEM) is reported as 80.27 ± 13.25 mm^3. For the same compound, the “Day 1 (TGI %)” value ([1]; Day 1) was 35.29%, the “Day 1 (RTV)” value ([1]; Day 1, Mean±SEM) was 1.44 ± 0.12 and the “Tumor volume, Day 1” value ([1]; Day 1, Mean±SEM) was 116.82 ± 21* mm^3. For the same compound, the “Day 2 (TGI %)” value ([1]; Day 2) was 44.25%, the “Day 2 (RTV)” value ([1]; Day 2, Mean±SEM) was 1.50 ± 0.15 and the “Tumor volume, Day 2” value ([1]; Day 2, Mean±SEM) was 123.70 ± 25.72* mm^3. The “Day 4 (TGI %)” value ([1]; Day 4) was 67.87%, the “Day 4 (RTV)” value ([1]; Day 4, Mean±SEM) was 1.11 ± 0.17 and the “Tumor volume, Day 4” value ([1]; Day 4, Mean±SEM) was 95.41 ± 22.57** mm^3. For the same compound, the “Day 7 (TGI %)” value ([1]; Day 7) was 86.92%, the “Day 7 (RTV)” value ([1]; Day 7, Mean±SEM) was 0.88 ± 0.12 and the “Tumor volume, Day 7” value ([1]; Day 7, Mean±SEM) was 56.58 ± 8.87** mm^3. The “Day 9 (TGI %)” value ([1]; Day 9) was 91.92%, the “Day 9 (RTV)” value ([1]; Day 9, Mean±SEM) was 0.77 ± 0.23 and the “Tumor volume, Day 9” value ([1]; Day 9, Mean±SEM) was 47.71 ± 0.00** mm^3. For the same compound, the “Day 11 (TGI %)” value ([1]; Day 11) was 92.19%, the “Day 11 (RTV)” value ([1]; Day 11, Mean±SEM) was 1.19 ± 0.19 and the “Tumor volume, Day 11” value ([1]; Day 11, Mean±SEM) was 76.28 ± 10.83** mm^3. For the same compound, the “Day 14 (TGI %)” value ([1]; Day 14) was 86.10%, the “Day 14 (RTV)” value ([1]; Day 14, Mean±SEM) was 3.15 ± 0.61 and the “Tumor volume, Day 14” value ([1]; Day 14, Mean±SEM) was 200.24 ± 20.65** mm^3. For the same compound, the “Day 16 (TGI %)” value ([1]; Day 16) was 77.07%, the “Day 16 (RTV)” value ([1]; Day 16, Mean±SEM) was 6.58 ± 1.42 and the “Tumor volume, Day 16” value ([1]; Day 16, Mean±SEM) was 415.31 ± 33.61** mm^3. For the same compound, the “Day 18 (TGI %)” value ([1]; Day 18) was 71.73%, the “Day 18 (RTV)” value ([1]; Day 18, Mean±SEM) was 8.97 ± 2.01 and the “Tumor volume, Day 18” value ([1]; Day 18, Mean±SEM) was 564.86 ± 41.27** mm^3. The “Day 21 (TGI %)” value ([1]; Day 21) was 60.58%, the “Day 21 (RTV)” value ([1]; Day 21, Mean±SEM) was 15.35 ± 3.61 and the “Tumor volume, Day 21” value ([1]; Day 21, Mean±SEM) was 963.72 ± 58.94 mm^3. For the same compound, the “Day 23 (TGI %)” value ([1]; Day 23) was 59.19%, the “Day 23 (RTV)” value ([1]; Day 23, Mean±SEM) was 15.35 ± 3.61 and the “Tumor volume, Day 23” value ([1]; Day 23, Mean±SEM) was 963.72 ± 58.94 mm^3. The “Day 25 (TGI %)” value ([1]; Day 25) was 57.93%, the “Day 25 (RTV)” value ([1]; Day 25, Mean±SEM) was 17.32 ± 4.11 and the “Tumor volume, Day 25” value ([1]; Day 25, Mean±SEM) was 1086.50 ± 63.85 mm^3. The “Day 28 (TGI %)” value ([1]; Day 28) was 49.34%, the “Day 28 (RTV)” value ([1]; Day 28, Mean±SEM) was 21.75 ± 5.25 and the “Tumor volume, Day 28” value ([1]; Day 28, Mean±SEM) was 1362.50 ± 74.25 mm^3. The “Day 30 (TGI %)” value ([1]; Day 30) was 37.03%, the “Day 30 (RTV)” value ([1]; Day 30, Mean±SEM) was 28.66 ± 8.38 and the “Tumor volume, Day 30” value ([1]; Day 30, Mean±SEM) was 1767.15 ± 0.00 mm^3. The “Weight change rate, Day 0” value ([2]; Day 0, G10-G16 groups, single IP 400 mg/kg) was 0.00%, the “Weight of mice, Day 0” value ([2]; Day 0, G10-G16 groups, single IP 400 mg/kg, Mean±SEM) was 20.15 ± 0.29 g and the “Weight change rate, Day 1” value [2, 3] was −1.20 ± 1.02%. For the same compound, the “Weight of mice, Day 1” value [2, 3] was 19.92 ± 0.44 g, the “Weight change rate, Day 2” value [2, 4] was −11.24 ± 1.52 % and the “Weight of mice, Day 2” value [2, 4] was 17.9 ± 0.52 g. For the same compound, the “Weight change rate, Day 4” value [2, 5] was −18.30 ± 3.09 %, the “Weight of mice, Day 4” value [2, 5] was 16.48 ± 0.77 g and the “Weight change rate, Day 7” value [2, 6] was −1.96 ± 0.54%. For the same compound, the “Weight of mice, Day 7” value [2, 6] was 20.10 ± 0.60 g, the “Weight change rate, Day 9” value [2, 7] was 2.49 ± 2.01% and the “Weight of mice, Day 9” value [2, 7] was 21.00 ± 0.10 g. For the same compound, the “Weight change rate, Day 11” value [2, 8] was 4.46 ± 3.04%, the “Weight of mice, Day 11” value [2, 8] was 21.40 ± 0.10 g and the “Weight change rate, Day 14” value [2, 9] was 7.83 ± 1.17 %. For the same compound, the “Weight of mice, Day 14” value [2, 9] was 22.1 ± 0.30 g, the “Weight change rate, Day 16” value [2, 10] was 11.00 ± 1.00 % and the “Weight of mice, Day 16” value [2, 10] was 22.75 ± 0.35 g. For the same compound, the “Weight change rate, Day 18” value [2, 11] was 13.18 ± 0.32 %, the “Weight of mice, Day 18” value [2, 11] was 23.20 ± 0.50 g and the “Weight change rate, Day 21” value [2, 12] was 9.29 ± 0.71 %. The “Weight of mice, Day 21” value [2, 12] was 22.40 ± 0.40 g, the “Day 22 Mortality” value ([2]; Day 22, single IP dose (mg/kg)) was 67% and the “Weight change rate, Day 23” value [2, 13] was 8.06 ± 0.44 %. For the same compound, the “Weight of mice, Day 23” value [2, 13] was 22.15 ± 0.45 g, the “Weight change rate, Day 25” value [2, 14] was 9.26 ± 0.26% and the “Weight of mice, Day 25” value [2, 14] was 22.4 ± 0.60 g. For the same compound, the “Weight change rate, Day 28” value [2, 15] was 7.08 ± 0.42%, the “Weight of mice, Day 28” value [2, 15] was 21.95 ± 0.45 g and the “Weight change rate, Day 30” value [2, 16] was 9.20 ± 2.70%. The “Weight of mice, Day 30” value [2, 16] was 22.40 ± 1.10 g and the clinical symptoms ([2]; after single IP dose, compared with model control group) was “no significant differences in clinical symptoms”.
